Results from US10722467B2, “Remote loading of sparingly water-soluble drugs into liposomes” (ZONEONE PHARMA, INC., priority 2013, dated 2020).

Assays:
Format in all cases: physicochemical
[1] = Liposome size by dynamic light scattering; details: carfilzomib-loaded liposomes, before lyophilizing
Experimental: (§1) The lipid concentration is determined by measuring the cholesterol by HPLC using an Agilent 1100 HPLC with and Agilent Zorbax 5 um, […], Eclipse XDB-C8 column and a mobile phase of A=0.1% TFA, B=0.1% TFA/MeOH with an isocratic elution of 99% B. The flow rate is 1.0 mL/min, column temperature is 50° C., 10 μL injection and detection by absorbance at 205 nm. The retention time of cholesterol is 4.5 min. The liposome size is measured by dynamic light scattering.
See Example 1, Carfilzomib liposome entrapment by remote loading for details on how the liposomes were made, purified and characterized.

[2] = Carfilzomib solubility as a function of DMSO content (optical density at 600 nm); details: drug 0.2 mg/mL
Experimental: Carfilzomib was added from a stock 10 mg/mL solution in DMSO to 1 mL of a citric acid/DMSO mixture so that the composition of DMSO was 2%, 25%, 50%, 75% and 100%. The final drug concentration was 0.2 mg/mL. The solutions were prepared and measured for optical density at 600 nm. The optical density at 600 nm is a good measure of how turbid or how much scattering material (such as drug precipitates) are in a solution, generally, the more precipitates the higher the absorbance. From FIG. 8 is apparent that at DMSO concentrations below 50% vol/vol (25° C.) and 25% vol/vol (65° C.) the drug remains in a precipitated form. Only when the concentration of DMSO is increased does it become effectively solubilized at this concentration of 0.2 mg/mL.

[3] = Remote loading of carfilzomib into liposomes (drug/lipid ratio and loading efficiency by HPLC); details: for efficiency of loading: 100 g drug/mol HSPC
Experimental: Ammonium sulfate solution was prepared by dissolving ammonium sulfate solid to a final concentration of 250 mM (500 mequivilents of anion/L) no pH adjustment was made to yield a final pH of 5.6. Sodium sulfate solution (250 mM) was prepared by adding 0.35 g sodium sulfate to 10 mL deionized water.
The liposomes were formed by extrusion. Lipids were dissolved in ethanol at a concentration of 500 mM HSPC (591 mg/mL total lipid) at 65° C. and the 9 volumes of the trapping agent solution heated to 65° C. was added to the ethanol/lipid solution also at 65° C. The mixture was vortexed and transferred to a 10 mL thermostatically controlled (65° C.) Lipex Extruder. The liposomes were formed by extruding 10 times through polycarbonate membranes having 0.1 um pores. After extrusion the liposomes were cooled on ice. The transmembrane electrochemical gradient was formed by purification of the liposomes by dialysis in dialysis tubing having a molecular weight cut off of 12,000-14,000. The samples are dialyzed against 5 mM HEPES, 10% sucrose pH 6.5 (stirring at 4° C.) at volume that is 100 fold greater than the sample volume. The dialysate was changed after 2 h then 4 more times after 12 h each. The conductivity of the liposome solution was measured and was indistinguishable from the dialysis medium ˜40 μS/cm.
as §1
Carfilzomib (Selleck Chemicals) was dissolved in DMSO at a concentration of 10 mg/mL. […] The liposomes were diluted with 50 mM citrate, 10% sucrose pH 4.0 to increase the volume to a point where after addition of the drug the final DMSO concentration is 2%. The carfilzomib/DMSO was added to the diluted liposomes, which were mixed at room temperature then transferred to a 65° C. bath and swirled every 30 s for the first 3 min and then swirled every 5 min over a total heating time of 30 min. All samples were very cloudy when the drug was added and all became clear (same as liposomes with no drug added) after 15 min. After heating for 30 min all samples were placed on ice for 15 min. The loaded liposomes were vortexed and 100 μL of sample was kept as the “before column” and the rest transferred to microcentrifuge tubes and spun at 10,000 RPM for 5 min. The supernatants were purified on a Sephadex G25 column collected and analyzed by HPLC. The HPLC analysis of carfilzomib was performed on the same system as described for analysis of cholesterol. The mobile phase consists of A=0.1% TFA, B=0.1% TFA/MeOH with a gradient elution starting at 50% B and increasing to 83% B in 13 min with 7 min equilibration back to 50% B. The flow rate is 1.0 mL/min, column temperature is 30 C, 10 μl injection and detection by absorbance at 205 nm. The retention time of carfilzomib is 12.2 min. The lipid concentration is determined by analysis of the cholesterol by HPLC. […]
Napthelenedisulfonic acid (NDS) was dissolved in water and titrated with diethylamine to a final pH of 8.0 and concentration of 250 mM (500 mequivilents of anion/L). […]
To ensure complete removal of the DMSO added with carfilzomib, the liposomal carfilzomib samples were dialyzed in dialysis tubing having a molecular weight cut off of 12,000-14,000. The samples are dialyzed against 5 mM HEPES, 10% sucrose pH 6.5 (stirring at 4° C.) at volume that is 100 fold greater than the sample volume. The dialysate was changed after 2 h then 2 more times after 12 h each. The carfilzomib liposomes were again analyzed for drug and lipid concentration as described above. […]

[4] = Reverse gradient-directed drug release from liposomes
Experimental: Liposomes were loaded with carfilzomib as described in Example 1 and were purified into deionized water. The sample was divided into two aliquots. To the first aliquot, concentrated Hepes pH 7.4 and NaCl was added so that the final concentration was 5 mM Hepes, 145 mM NaCl (HBS). To the second aliquot, concentrated ammonium sulfate was added so that the final concentration was 250 mM. No obvious physical changes were initially observed. The samples were then heated at 65° C. for 30 min. The samples were transferred to clean eppendorf tubes and centrifuged for 10,000 rpm for 5 min after which the supernatants and precipitates were separated and tested for carfilzomib content by HPLC assay. Released drug precipitated, liposome encapsulated drug remained in the supernatant. The % carfilzomib released was calculated by […]

[5] = Light scattering at 600 nm during carfilzomib loading
Experimental: Liposomes containing 250 mM ammonium sulfate as trapping agent and 250 mM sodium sulfate as control liposomes which would not remote load drug. The liposomes were prepared and loaded using the procedure described in Example 1 except a disposable polystyrene cuvette was used as the reaction vessel. The scattering of light at 600 nm was measured with a UV/vis spectrophotometer during the loading process.

[6] = Remote loading of aripiprazole into liposomes
Experimental: Liposomes (HSPC/Chol/PEG-DSPE 3/2/0.15 mol/mol/mol) containing 250 mM ammonium sulfate or 250 mM sodium sulfate were diluted in 1 mL of 50 mM citric acid, 10% (wt/wt) sucrose, pH 4.0 to a concentration of 6 mM phospholipid. 0.3 mg of aripiprazole was added from a stock solution of 15 mg/mL in DMSO, so that the final DMSO concentration was 2% (v/v). Fine precipitates were immediately observed after the drug was added to both liposome samples. The samples were heated at 65° C. for 30 min, the cooled on ice. The samples were filtered through a 0.2 um polyethersulfone syringe filter to remove any drug precipitates, followed by purification on a Sephadex G25 column equilibrated with HBS, pH 6.5 to remove any soluble extraliposome drug. The turbid fraction was collected and analyzed for lipid and drug as described above.

[7] = Aripiprazole precipitates from various solvents with liposomes, absorbance at 600 nm; details: drug initially dissolved in DMSO, 1-4-methylpyrrolidone, diethylenemonoethylether or polyethyleneglycol (MW400); 7.5% solvent; ammonium sulfate liposomes; 65°C 30 min
Experimental: Aripiprazole was dissolved in a range of solvents indicated below at 4 mg/mL. Liposomes composed of HSPC/Chol/PEG-DSPE (3/2/0.15 mol/mol/mol) that were prepared in 250 mM ammonium sulfate were used and diluted to 6 mM in Hepes buffered sucrose 10% (wt/wt) (HBSuc pH 6.5). 0.3 mg of drug was introduced by slow addition of each solvent while vortexing. The final solvent concentration was 7.5% for all samples. As controls, the drug was added from each solvent to the same volume of HBSuc pH 6.5 without the liposomes. The samples were heated at 65° C. for 30 min then cooled on ice.

[8] = 500 mM ammonium sulfate liposomes, highest input ratio of Example 10
[9] = [(NH4)2SO4] 250 mM, input drug/HSPC 167.3 g/mol

CC(C)C[C@H](NC(=O)[C@H](CCc1ccccc1)NC(=O)CN1CCOCC1)C(=O)N[C@@H](Cc1ccccc1)C(=O)N[C@@H](CC(C)C)C(=O)[C@@]1(C)CO1 [carfilzomib]
PDI ([1]; trapping agent (NH4)2SO4, drug added quickly): 0.062
PDI ([1]; trapping agent (NH4)2SO4, drug added slowly): 0.035
PDI ([1]; trapping agent mellitic acid): 0.08
PDI ([1]; trapping agent napthelenedisulfonic acid): 0.039
DMSO concentration below which the drug remains in a precipitated form ([2]; 25°C): below 50 % vol/vol
DMSO concentration below which the drug remains in a precipitated form ([2]; 65°C): < 25 % vol/vol
DMSO required to completely dissolve the drug ([2]; 65°C, citric acid/DMSO mixture): > 25 % vol/vol
drug/carrier total lipid weight ratio (highest reached) [3, 8]: 0.4
final drug payload (highest reached) [3, 8]: 469±4.9 g drug/mol HSPC
final drug to lipid ratio ([3]; 500 mM ammonium sulfate, input 639 g drug/mol HSPC): 440±10.2 g drug/mol HSPC
remote loading ([3]; DMSO absent): practically no loading
Drug payload/carrier weight ratio ([3]; [(NH4)2SO4] 250 mM, input drug/HSPC 91.8 g/mol): 0.07 g drug/g total lipid
Drug payload/carrier weight ratio [3, 9]: 0.11 g drug/g total lipid
efficiency [3, 9]: 76.0%
Drug payload/carrier weight ratio ([3]; [(NH4)2SO4] 250 mM, input drug/HSPC 251.8 g/mol): 0.15 g drug/g total lipid
Drug payload/carrier weight ratio ([3]; [(NH4)2SO4] 250 mM, input drug/HSPC 338.1 g/mol): 0.18 g drug/g total lipid
Drug payload/carrier weight ratio ([3]; [(NH4)2SO4] 250 mM, input drug/HSPC 432.8 g/mol): 0.20 g drug/g total lipid
Drug payload/carrier weight ratio ([3]; [(NH4)2SO4] 500 mM, input drug/HSPC 450.6 g/mol): 0.29 g drug/g total lipid
Drug payload/carrier weight ratio ([3]; [(NH4)2SO4] 500 mM, input drug/HSPC 545.9 g/mol): 0.32 g drug/g total lipid
Drug payload/carrier weight ratio ([3]; [(NH4)2SO4] 500 mM, input drug/HSPC 639.2 g/mol): 0.37 g drug/g total lipid
Drug payload/carrier weight ratio ([3]; [(NH4)2SO4] 500 mM, input drug/HSPC 758.7 g/mol): 0.40 g drug/g total lipid
efficiency of loading ([3]; drug from 10 mg/mL DMSO solution added in 5 increments over 1 min while vortexing): 96.3%±1.09%
efficiency of loading ([3]; drug from 10 mg/mL DMSO solution added quickly, 2% DMSO): 97.0%±2.38%
loading capacity, remote loaded (ammonium sulfate) vs sodium sulfate liposomes ([3]; drug input below/at 100 g drug/mol HSPC): > 3 fold
effect of time between precipitate formation and loading on loading efficiency ([3]; liposomes added immediately, after 1 h or 12 h delay): does not have a significant impact
degradation of released drug by HPLC chromatogram ([4]; after loading and release from liposomes, compared with starting material): no degradation of carfilzomib had taken place
drug released with reverse gradient vs control with no reverse gradient ([4]; ammonium sulfate vs Hepes buffered saline): 6.5 fold
time to clarification of the solution ([5]; 250 mM ammonium sulfate liposomes, light scattering at 600 nm during loading): ≤ 15 min
clarification of the precipitate during loading ([5]; 250 mM sodium sulfate control liposomes, light scattering at 600 nm): do not show any clarification of the precipitate

O=C1CCc2ccc(OCCCCN3CCN(c4cccc(Cl)c4Cl)CC3)cc2N1 [aripiprazole]
loading efficiency ([6]; drug introduced as SBCD complex (from the pharmaceutical product Abilify), same concentration and loading conditions): 68%
Fold Increase NH4SO4/NaSO4 ([6]; loading into ammonium sulfate vs sodium sulfate liposomes): 49.3 fold
clarification of drug precipitate with liposomes (absorbance at 600 nm) [7]: clarified the drug precipitate
